The results in this text go back to patent publication US20250082763A1, “COMBINATION DRUG FOR TREATING TRIPLE-NEGATIVE BREAST CANCER” (HINOVA PHARMACEUTICALS INC., priority 2022, published 2025).

Common to all, as to type: cell-based
In one experiment the test system is MFM-223. Kind of experiment: Antiproliferation, CellTiter-Glo, 5 days, MFM-223. As to conditions: Homo sapiens, 120 h, MFM-223, AR+ TNBC. The procedure:
(§1) For MDA-MB-453, MFM-223, SUM159PT, MDA-MB-468, and HCC1937, 4,000, 3,000, 1,000, 3,000, and 3,000 cells were plated per well in 96-well microplates (Corning Inc), respectively. Cells were treated with serial dilutions of tested compounds with the maximum working concentration of 10 μM. Cell survival was measured 5 days later using a CellTiter-Glo luminescent cell viability assay kit (Promega Corporation). Luminescence was recorded by FLUOstar Omega microplate reader (BMG Labtech). Half maximal inhibitory concentration (IC50) was determined with GraphPad Prism using baseline correction (by normalizing to dimethyl sulfoxide (DMSO) control)

A further experiment relates to MDA-MB-453 cells. Kind of experiment: Inhibition of proliferation of MDA-MB-453 cells (CCK-8 or CTG, 7-10 days). As to conditions: Homo sapiens, co-incubation 7-10 days, CCK-8 or CTG, read-out: IC50 values against MDA-MB-453 cells. The procedure:
Triple negative breast cancer MDA-MB-453 cells in logarithmic growth stage were inoculated into a 96-well plate at a concentration of 4×10^3 cells/well, and then incubated in an incubator at 37° C., 5% CO2, and saturated humidity for 24 h or 48 h. To the negative control well, was added RPMI 1640 cell medium containing 10% fetal bovine serum in the same volume as the drug. After cultured for 24 h or 48 h, to the 96-well plate, were added AR PROTACs compounds 162, 177, 230, 259, 279, 281, 282, 325, 357, 400, ARV-110, ARV-766 and AR inhibitor HC-1119, respectively. The concentrations of compounds 177, 230, 259, 279, 281, 282, 325, 357, 400, ARV-110, and ARV-766 are 0 μM, 0.002 μM, 0.005 μM, 0.014 μM, 0.041 μM, 0.123 μM, 0.370 μM, 1.111 μM, 3.333 μM or 10 μM; while the concentrations of HC-1119 are 0 μM, 1.23 μM, 3.70 μM, 11.11 μM, 33.33 μM or 100 μM.
After addition of the drugs and co-incubation for 7-10 days, 10 μL of CCK-8 was added to each well, and then the plate was further cultured for 2 h. The absorbance value (OD) of each well was measured using a microplate reader at a wavelength of 450 nm. The survival rate was calculated using Prism software, the relative survival rate=(OD value of drug well/OD value of control well)×100%. Alternatively, 100 μL of medium was removed from each well, and then 50 μL of CTG was added. The plate was shaken in the dark for 2 min, allowed to stand for 10 min, and then measured using a microplate reader in Luminescence mode. Prism software was used to calculate the survival rate, the relative survival rate=(the RLU value of drug well/the RLU value of control well)×100%.

Another experiment relates to MDA-MB-453. Kind of experiment: Antiproliferation, CellTiter-Glo, 5 days, MDA-MB-453. As to conditions: Homo sapiens, 120 h, MDA-MB-453, AR+ TNBC. The procedure: as §1
A general note: Cellular ATP, detected with luciferase, serves as a proxy for viable cell number.

A further experiment has as its system SUM159PT. Kind of experiment: Antiproliferation, CellTiter-Glo, 5 days, SUM159PT. The note with it: Homo sapiens, SUM-159-PT, 120 h, AR+ TNBC. The procedure: Cells were treated with serial dilutions of tested compounds with the maximum working concentration of 10 μM. Cell survival was measured 5 days later using a CellTiter-Glo luminescent cell viability assay kit (Promega Corporation). Luminescence was recorded by FLUOstar Omega microplate reader (BMG Labtech). Half maximal inhibitory concentration (IC50) was determined with GraphPad Prism using baseline correction (by normalizing to dimethyl sulfoxide (DMSO) control)

For experiment [1], the system named is AR+ TNBC cells (MDA-MB-453, SUM159PT and MFM-223) and AR- TNBC (MDA-MB-468 and HCC1937). Kind of experiment: Antiproliferation in AR positive and negative TNBC cells (summary over the cell line panel). As to conditions: AR+ TNBC cells: MDA-MB-453, SUM159PT and MFM-223. The procedure:
as §1

The target in another experiment is T1, Androgen Receptor (Homo sapiens, UniProt P10275).
T1 construct: endogenous in cells
T1 sequence (P10275 1-920): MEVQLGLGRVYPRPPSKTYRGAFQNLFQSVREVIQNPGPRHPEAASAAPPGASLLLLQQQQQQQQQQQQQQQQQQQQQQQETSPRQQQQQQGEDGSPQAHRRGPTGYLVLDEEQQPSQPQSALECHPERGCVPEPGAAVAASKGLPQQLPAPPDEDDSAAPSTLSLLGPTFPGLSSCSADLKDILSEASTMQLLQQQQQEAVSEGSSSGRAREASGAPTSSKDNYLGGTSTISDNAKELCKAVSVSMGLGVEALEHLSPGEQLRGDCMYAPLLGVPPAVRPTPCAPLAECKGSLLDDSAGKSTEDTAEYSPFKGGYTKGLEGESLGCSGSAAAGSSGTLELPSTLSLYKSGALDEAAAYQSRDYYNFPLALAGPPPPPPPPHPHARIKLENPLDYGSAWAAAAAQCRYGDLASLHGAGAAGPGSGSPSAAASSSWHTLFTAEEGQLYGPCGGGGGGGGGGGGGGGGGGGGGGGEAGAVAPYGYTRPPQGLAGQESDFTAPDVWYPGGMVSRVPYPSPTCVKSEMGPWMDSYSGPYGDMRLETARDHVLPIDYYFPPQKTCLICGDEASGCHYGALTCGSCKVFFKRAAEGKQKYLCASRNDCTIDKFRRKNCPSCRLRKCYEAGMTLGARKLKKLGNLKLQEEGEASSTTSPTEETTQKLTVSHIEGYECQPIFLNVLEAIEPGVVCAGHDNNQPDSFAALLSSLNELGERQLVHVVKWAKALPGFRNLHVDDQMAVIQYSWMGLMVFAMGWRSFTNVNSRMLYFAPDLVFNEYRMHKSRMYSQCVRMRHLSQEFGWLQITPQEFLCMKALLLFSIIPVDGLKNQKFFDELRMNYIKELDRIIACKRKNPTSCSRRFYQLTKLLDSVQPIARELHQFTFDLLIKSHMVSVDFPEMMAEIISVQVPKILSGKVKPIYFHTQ
Put plainly: AR degradation in AR positive TNBC cells, western blotting. The note with it: MDA-MB-453, SUM159PT and MFM-223 cells, 24 hours, up to 1 μM, western blot. The procedure: Cells were plated in 12-well microplates and incubated at 37° C. overnight for attachment. Cells were then treated for 24 hours with serial dilutions of tested compounds with the maximum working concentration of 1 μM. Cell lysate were subjected to the western blotting assay against AR antibody.
Primary antibodies: Androgen Receptor (D6F11) XP® Rabbit mAb; Anti-GAPDH Rabbit mAb; Secondary antibody: Goat Anti-Rabbit IgG H&L (HRP)
Background: A western blot detects proteins with antibodies after separation by electrophoresis.

Where only a bound is given, the exact number is not on record here.

As to `N#Cc1ccc(O[C@H]2CC[C@H](NC(=O)c3ccc(N4CCC(CN5CCN(c6cc7c(cc6F)C(=O)N(C6CCC(=O)NC6=O)C7=O)CC5)CC4)nn3)CC2)cc1Cl` (stereo partly shown) [ARV-110, reference compound], the IC50 – broadly, the midpoint of a concentration-inhibition curve – is 4000 nM in the experiment with MFM-223, not above 2000 nM with MDA-MB-453 cells, 1400 nM in the experiment on MDA-MB-453 and 1600 nM in the experiment with SUM159PT.
For `N#Cc1ccc(O[C@H]2CC[C@H](NC(=O)c3cnc(N4CCC(CN5CCC6(CC5)CN(c5ccc7c(c5)C(=O)N(C5CCC(=O)NC5=O)C7=O)C6)CC4)nn3)CC2)cc1Cl` (stereo partly shown) [Compound 279], the IC50 with MFM-223 was 460 nM; in the experiment on MDA-MB-453 cells it was not above 2000 nM; in the experiment with MDA-MB-453, 140 nM; in the experiment with SUM159PT, 440 nM. Moreover, the “anti-proliferation activity in AR+ TNBC cells” value in experiment [1] was “superior anti-proliferation activity”. The “AR degradation (words, FIG. 1)” value on Androgen Receptor is listed as “superior degradation activity”.
